Test results as given in ChEMBL document CHEMBL3046231 (Med Chem Res, 2008).

What was measured:
Mus musculus [1] = assay: Toxicity in Mus musculus albino (mouse) assessed as effect on gross behavior at 75 umole/kg, ip; format: organism-based; conditions: in vivo
Mus musculus [2] = assay: Antidepressant activity in Mus musculus albino (mouse) assessed as reversal of reserpine-induced ptosis at 75 umole/kg, ip after 3 hr by chi-square test relative to control; format: functional
Mus musculus [3] = assay: Anorexigenic activity in Mus musculus albino (mouse) assessed as reduction of milk intake at 75 umole/kg, ip relative to control; format: functional; design: scale not given: the % may be the effect or the level left

SMILES | Activity (Mus musculus [1]) | Activity (Mus musculus [2]) | Activity (Mus musculus [3])
COc1cc(NC(=S)N(C)CCC(Oc2ccc(C(F)(F)F)cc2)c2ccccc2)cc(OC)c1OC (configuration not stated) | Non-toxic | 100% | –
CN(CCC(Oc1ccc(C(F)(F)F)cc1)c1ccccc1)C(=S)NC(C)(C)C (configuration not stated) | Non-toxic | 100% | –
COc1ccc(NC(=S)N(C)CCC(Oc2ccc(C(F)(F)F)cc2)c2ccccc2)cc1 (configuration not stated) | Non-toxic | 100% | –
CC(C)NC(=S)N(C)CCC(Oc1ccc(C(F)(F)F)cc1)c1ccccc1 (configuration not stated) | Non-toxic | 100% | –
CN(C[C@@H]1CCc2ccccc2[C@@H]1Oc1ccc(C(F)(F)F)cc1)C(=S)NCCc1ccccc1 | Non-toxic | 100% | –
CN(C[C@@H]1CCc2ccccc2[C@@H]1Oc1ccc(C(F)(F)F)cc1)C(=O)NC1CCCCC1 | Non-toxic | 100% | –
CN(C[C@@H]1CCc2ccccc2[C@@H]1Oc1ccc(C(F)(F)F)cc1)C(=O)NCCc1ccccc1 | Non-toxic | 100% | –
CC1CCC(NC(=O)N(C)C[C@@H]2CCc3ccccc3[C@@H]2Oc2ccc(C(F)(F)F)cc2)CC1 (some centres not stated) | Non-toxic | 80% | –
CN(CCC(Oc1ccc(C(F)(F)F)cc1)c1ccccc1)C(=O)NC1CCCCC1 (configuration not stated) | Non-toxic | 80% | –
CN(CCC(Oc1ccc(C(F)(F)F)cc1)c1ccccc1)C(=S)NCCc1ccccc1 (configuration not stated) | Non-toxic | 40% | –
CN(CCC(Oc1ccc(C(F)(F)F)cc1)c1ccccc1)C(=S)NCc1ccccc1 (configuration not stated) | Non-toxic | 100% | –
Cc1ccc(NC(=S)N(C)CCC(Oc2ccc(C(F)(F)F)cc2)c2ccccc2)cc1 (configuration not stated) | Non-toxic | 80% | –
CN(CCC(Oc1ccc(C(F)(F)F)cc1)c1ccccc1)C(=O)NCCc1ccccc1 (configuration not stated) | Non-toxic | 100% | –
CN(CCC(Oc1ccc(C(F)(F)F)cc1)c1ccccc1)C(=S)NC1CCCCC1 (configuration not stated) | Non-toxic | 100% | –
CN(CCC(Oc1ccc(C(F)(F)F)cc1)c1ccccc1)C(=S)Nc1ccccc1 (configuration not stated) | Non-toxic | 100% | –
CN(CCC(Oc1ccc(C(F)(F)F)cc1)c1ccccc1)C(=S)NC(=O)c1ccccc1 (configuration not stated) | Non-toxic | 100% | –
CC1CCC(NC(=S)N(C)CCC(Oc2ccc(C(F)(F)F)cc2)c2ccccc2)CC1 (configuration not stated) | Non-toxic | 60% | –
CNCCC(Oc1ccc(C(F)(F)F)cc1)c1ccccc1 (configuration not stated) [FLUOXETINE] | – | 0% | 78.49%
COC(=O)[C@H]1[C@H]2C[C@@H]3c4[nH]c5cc(OC)ccc5c4CCN3C[C@H]2C[C@@H](OC(=O)c2cc(OC)c(OC)c(OC)c2)[C@@H]1OC [RESERPINE] | – | 100% | –
